Laboratory results reported in ChEMBL document CHEMBL5634077, “Recent advances in 1,2,3- and 1,2,4-triazole hybrids as antimicrobials and their SAR: A critical review” (2023).
Values after ≈ are worked out from the molar mass of the structure shown.

How the values were obtained:
Assay type in all cases: functional
[1] = tested on: Staphylococcus epidermidis; assay: Antibacterial activity against Methicillin-resistant Staphylococcus epidermidis assessed as bacterial growth inhibition
[2] = tested on: Staphylococcus epidermidis; assay: Antibacterial activity against Methicillin-sensitive Staphylococcus epidermidis assessed as bacterial growth inhibition
Staphylococcus aureus [3] = assay: Antibacterial activity against Methicillin-resistant Staphylococcus aureus assessed as bacterial growth inhibition
Staphylococcus aureus [4] = assay: Antibacterial activity against Methicillin-sensitive Staphylococcus aureus assessed as bacterial growth inhibition
Enterococcus faecalis = assay: Antibacterial activity against Enterococcus faecalis assessed as bacterial growth inhibition
Enterococcus faecium = assay: Antibacterial activity against Enterococcus faecium assessed as inhibition of bacterial growth
Cryptococcus neoformans = assay: Antifungal activity against Cryptococcus neoformans 32609 assessed as reduction in fungal growth incubated for 72 hrs by NCCLS based assay
Candida albicans [5] = assay: Antifungal activity against Candida albicans SC5314 assessed as reduction in fungal growth incubated for 24 hrs by NCCLS based assay
Nakaseomyces glabratus = assay: Antifungal activity against Candida glabrata 537 assessed as reduction in fungal growth incubated for 72 hrs by NCCLS based assay
Aspergillus fumigatus = assay: Antifungal activity against Aspergillus fumigatus 7544 assessed as reduction in fungal growth incubated for 5 to 7 days by NCCLS based assay; conditions: time 5-7 day
Candida albicans [6] = assay: Antifungal activity against Candida albicans Y0109 assessed as reduction in fungal growth incubated for 24 hrs by NCCLS based assay
Trichophyton rubrum = assay: Antifungal activity against Trichophyton rubrum assessed as reduction in fungal growth incubated for 5 to 7 days by NCCLS based assay; conditions: time 5-7 day
Nannizzia gypsea = assay: Antifungal activity against Microsporum gypseum assessed as reduction in fungal growth incubated for 5 to 7 days by NCCLS based assay; conditions: time 5-7 day
Aspergillus flavus = assay: Antifungal activity against Aspergillus flavus assessed as diameter of inhibition zone incubated for 24 hrs by well diffusion assay
Proteus vulgaris = assay: Antibacterial activity against Proteus vulgaris RCMB 004 assessed as diameter of inhibition zone incubated for 24 hrs by well diffusion assay
Geotrichum candidum = assay: Antifungal activity against Geotrichum candidum RCMB 052006 assessed as diameter of inhibition zone incubated for 24 hrs by well diffusion assay
Staphylococcus aureus [7] = assay: Antibacterial activity against Staphylococcus aureus assessed as diameter of inhibition zone incubated for 24 hrs by well diffusion assay
Escherichia coli = assay: Antibacterial activity against Escherichia coli RCMB 010052 assessed as diameter of inhibition zone incubated for 24 hrs by well diffusion assay
Bacillus subtilis = assay: Antibacterial activity against Bacillus subtilis RCMB 010069 assessed as diameter of inhibition zone incubated for 24 hrs by well diffusion assay

COc1c(N2C[C@H]3CCCN(C(=O)Cn4cc(CN5C(=O)C(=O)c6ccc(F)cc65)nn4)[C@H]3C2)c(F)cc2c(=O)c(C(=O)O)cn(C3CC3)c12
MIC [1]: 0.06 µg/mL (≈ 0.0873 µM) | MIC [2]: 0.06 µg/mL (≈ 0.0873 µM) | MIC (Staphylococcus aureus [3]): 0.06 µg/mL (≈ 0.0873 µM) | MIC (Staphylococcus aureus [4]): 0.06 µg/mL (≈ 0.0873 µM) | MIC (Enterococcus faecalis): 0.06 µg/mL (≈ 0.0873 µM) | MIC (Enterococcus faecium): 0.06 µg/mL (≈ 0.0873 µM)

Cc1ccccc1-c1cc(CO[C@H](C)[C@](O)(Cn2cncn2)c2ccc(F)cc2F)on1
MIC80 (Cryptococcus neoformans): 1 µg/mL (≈ 2.27 µM) | MIC80 (Candida albicans [5]): 0.125 µg/mL (≈ 0.284 µM) | MIC80 (Nakaseomyces glabratus): 0.25 µg/mL (≈ 0.568 µM) | MIC80 (Aspergillus fumigatus): 4 µg/mL (≈ 9.08 µM) | MIC80 (Candida albicans [6]): 0.031 µg/mL (≈ 0.0704 µM) | MIC80 (Trichophyton rubrum): 4 µg/mL (≈ 9.08 µM) | MIC80 (Nannizzia gypsea): 2 µg/mL (≈ 4.54 µM)

COc1ccc(-c2cc(CO[C@H](C)[C@](O)(Cn3cncn3)c3ccc(F)cc3F)on2)cc1
MIC80 (Cryptococcus neoformans): 1 µg/mL (≈ 2.19 µM) | MIC80 (Candida albicans [5]): 0.5 µg/mL (≈ 1.1 µM) | MIC80 (Nakaseomyces glabratus): 0.5 µg/mL (≈ 1.1 µM) | MIC80 (Aspergillus fumigatus): 4 µg/mL (≈ 8.76 µM) | MIC80 (Candida albicans [6]): 0.125 µg/mL (≈ 0.274 µM) | MIC80 (Trichophyton rubrum): 1 µg/mL (≈ 2.19 µM) | MIC80 (Nannizzia gypsea): 1 µg/mL (≈ 2.19 µM)

Cc1c(-c2cc(-c3c[nH]c4ccccc34)nc(S)n2)nnn1-c1ccc(-n2nnc(-c3cc(-c4c[nH]c5ccccc45)nc(S)n3)c2C)cc1
diameter of the inhibition zone (DIZ) (Aspergillus flavus): 19.1 mm | diameter of the inhibition zone (DIZ) (Proteus vulgaris): 22.2 mm | diameter of the inhibition zone (DIZ) (Geotrichum candidum): 21.1 mm | diameter of the inhibition zone (DIZ) (Staphylococcus aureus [7]): 20.6 mm | diameter of the inhibition zone (DIZ) (Escherichia coli): 30.9 mm | diameter of the inhibition zone (DIZ) (Bacillus subtilis): 37.8 mm

COc1c(N2C[C@@H]3CCCN[C@@H]3C2)c(F)cc2c(=O)c(C(=O)O)cn(C3CC3)c12 [MOXIFLOXACIN]
MIC [1]: 0.06 µg/mL (≈ 0.149 µM) | MIC [2]: 0.06 µg/mL (≈ 0.149 µM) | MIC (Staphylococcus aureus [3]): 0.06 µg/mL (≈ 0.149 µM) | MIC (Staphylococcus aureus [4]): 0.06 µg/mL (≈ 0.149 µM) | MIC (Enterococcus faecalis): 0.06 µg/mL (≈ 0.149 µM) | MIC (Enterococcus faecium): 0.06 µg/mL (≈ 0.149 µM)

COc1c(N2C[C@H]3CCCN(C(=O)Cn4cc(CN5C(=O)C(=O)c6c(F)cccc65)nn4)[C@H]3C2)c(F)cc2c(=O)c(C(=O)O)cn(C3CC3)c12
MIC [1]: 0.06 µg/mL (≈ 0.0873 µM) | MIC [2]: 0.06 µg/mL (≈ 0.0873 µM) | MIC (Staphylococcus aureus [3]): 0.06 µg/mL (≈ 0.0873 µM) | MIC (Staphylococcus aureus [4]): 0.06 µg/mL (≈ 0.0873 µM) | MIC (Enterococcus faecalis): 0.06 µg/mL (≈ 0.0873 µM) | MIC (Enterococcus faecium): 0.06 µg/mL (≈ 0.0873 µM)

Cc1c(C(=O)/C=C/c2ccccn2)nnn1-c1ccc(-n2nnc(C(=O)/C=C/c3ccccn3)c2C)cc1
diameter of the inhibition zone (DIZ) (Aspergillus flavus): 22 mm | diameter of the inhibition zone (DIZ) (Proteus vulgaris): 24.37 mm | diameter of the inhibition zone (DIZ) (Geotrichum candidum): 24 mm | diameter of the inhibition zone (DIZ) (Staphylococcus aureus [7]): 22.02 mm | diameter of the inhibition zone (DIZ) (Escherichia coli): 31.3 mm | diameter of the inhibition zone (DIZ) (Bacillus subtilis): 32.2 mm

CO/N=C1/C(=O)N(Cc2cn(CC(=O)N3CCC[C@@H]4CN(c5c(F)cc6c(=O)c(C(=O)O)cn(C7CC7)c6c5OC)C[C@@H]43)nn2)c2cc(F)ccc21
MIC [1]: 0.06 µg/mL (≈ 0.0837 µM) | MIC [2]: 0.06 µg/mL (≈ 0.0837 µM) | MIC (Staphylococcus aureus [3]): 0.06 µg/mL (≈ 0.0837 µM) | MIC (Staphylococcus aureus [4]): 0.06 µg/mL (≈ 0.0837 µM) | MIC (Enterococcus faecalis): 0.06 µg/mL (≈ 0.0837 µM) | MIC (Enterococcus faecium): 0.06 µg/mL (≈ 0.0837 µM)

CCO/N=C1/C(=O)N(Cc2cn(CC(=O)N3CCC[C@@H]4CN(c5c(F)cc6c(=O)c(C(=O)O)cn(C7CC7)c6c5OC)C[C@@H]43)nn2)c2ccccc21
MIC [1]: 0.06 µg/mL (≈ 0.0842 µM) | MIC [2]: 0.06 µg/mL (≈ 0.0842 µM) | MIC (Staphylococcus aureus [3]): 0.06 µg/mL (≈ 0.0842 µM) | MIC (Staphylococcus aureus [4]): 0.06 µg/mL (≈ 0.0842 µM) | MIC (Enterococcus faecalis): 0.06 µg/mL (≈ 0.0842 µM) | MIC (Enterococcus faecium): 0.06 µg/mL (≈ 0.0842 µM)

CO/N=C1/C(=O)N(Cc2cn(CC(=O)N3CCC[C@@H]4CN(c5c(F)cc6c(=O)c(C(=O)O)cn(C7CC7)c6c5OC)C[C@@H]43)nn2)c2ccccc21
MIC [1]: 0.06 µg/mL (≈ 0.0859 µM) | MIC [2]: 0.06 µg/mL (≈ 0.0859 µM) | MIC (Staphylococcus aureus [3]): 0.06 µg/mL (≈ 0.0859 µM) | MIC (Staphylococcus aureus [4]): 0.06 µg/mL (≈ 0.0859 µM) | MIC (Enterococcus faecalis): 0.06 µg/mL (≈ 0.0859 µM) | MIC (Enterococcus faecium): 0.06 µg/mL (≈ 0.0859 µM)

COc1c(N2C[C@H]3CCCN(C(=O)Cn4cc(CN5C(=O)C(=O)c6ccc(C)cc65)nn4)[C@H]3C2)c(F)cc2c(=O)c(C(=O)O)cn(C3CC3)c12
MIC [1]: 0.06 µg/mL (≈ 0.0878 µM) | MIC [2]: 0.06 µg/mL (≈ 0.0878 µM) | MIC (Staphylococcus aureus [3]): 0.06 µg/mL (≈ 0.0878 µM) | MIC (Staphylococcus aureus [4]): 0.06 µg/mL (≈ 0.0878 µM) | MIC (Enterococcus faecalis): 0.06 µg/mL (≈ 0.0878 µM) | MIC (Enterococcus faecium): 0.06 µg/mL (≈ 0.0878 µM)

C[C@@H](c1nc(-c2ccc(C#N)cc2)cs1)[C@](O)(Cn1cncn1)c1ccc(F)cc1F [RAVUCONAZOLE]
MIC80 (Cryptococcus neoformans): 0.125 µg/mL (≈ 0.286 µM) | MIC80 (Candida albicans [5]): 0.25 µg/mL (≈ 0.571 µM) | MIC80 (Nakaseomyces glabratus): 0.125 µg/mL (≈ 0.286 µM) | MIC80 (Aspergillus fumigatus): 2 µg/mL (≈ 4.57 µM) | MIC80 (Candida albicans [6]): 0.062 µg/mL (≈ 0.142 µM) | MIC80 (Trichophyton rubrum): 0.125 µg/mL (≈ 0.286 µM) | MIC80 (Nannizzia gypsea): 1 µg/mL (≈ 2.29 µM)

CO/N=C1/C(=O)N(Cc2cn(CC(=O)N3CCC[C@@H]4CN(c5c(F)cc6c(=O)c(C(=O)O)cn(C7CC7)c6c5OC)C[C@@H]43)nn2)c2cc(C)ccc21
MIC [1]: 0.06 µg/mL (≈ 0.0842 µM) | MIC [2]: 0.06 µg/mL (≈ 0.0842 µM) | MIC (Staphylococcus aureus [3]): 0.06 µg/mL (≈ 0.0842 µM) | MIC (Staphylococcus aureus [4]): 0.06 µg/mL (≈ 0.0842 µM) | MIC (Enterococcus faecalis): 0.06 µg/mL (≈ 0.0842 µM) | MIC (Enterococcus faecium): 0.06 µg/mL (≈ 0.0842 µM)

CCO/N=C1/C(=O)N(Cc2cn(CC(=O)N3CCC[C@@H]4CN(c5c(F)cc6c(=O)c(C(=O)O)cn(C7CC7)c6c5OC)C[C@@H]43)nn2)c2cc(C)ccc21
MIC [1]: 0.06 µg/mL (≈ 0.0826 µM) | MIC [2]: 0.06 µg/mL (≈ 0.0826 µM) | MIC (Staphylococcus aureus [3]): 0.06 µg/mL (≈ 0.0826 µM) | MIC (Staphylococcus aureus [4]): 0.06 µg/mL (≈ 0.0826 µM) | MIC (Enterococcus faecalis): 0.06 µg/mL (≈ 0.0826 µM) | MIC (Enterococcus faecium): 0.06 µg/mL (≈ 0.0826 µM)
